Assay results taken from PubChem BioAssay (NCI).
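The compound was tested at five concentrations on cells cultured in 96-well plates, with a 48-hour exposure period. The concentration for full growth arrest is given as TGI.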

Legend:
Experiment in all cases: NCI-60 cell line screen, 48 h
786-0 renal = test system: 786-0 renal
A549 NSCLC = test system: A549 NSCLC
BT-549 breast = test system: BT-549 breast
DU-145 prostate = test system: DU-145 prostate
HCT-116 colon = test system: HCT-116 colon
HOP-62 NSCLC = test system: HOP-62 NSCLC
HS 578T breast = test system: HS 578T breast
IGROV1 ovarian = test system: IGROV1 ovarian
MALME-3M melanoma = test system: MALME-3M melanoma
NCI-H226 lung = test system: NCI-H226 lung
NCI/ADR-RES ovarian = test system: NCI/ADR-RES ovarian
RXF 393 renal = test system: RXF 393 renal
SF-539 CNS = test system: SF-539 CNS
SK-MEL-28 melanoma = test system: SK-MEL-28 melanoma
SK-MEL-5 melanoma = test system: SK-MEL-5 melanoma
SNB-19 CNS = test system: SNB-19 CNS
UACC-257 melanoma = test system: UACC-257 melanoma
UACC-62 melanoma = test system: UACC-62 melanoma

Structure (SMILES) | TGI (786-0 renal) [µM] | TGI (A549 NSCLC) [µM] | TGI (BT-549 breast) [µM] | TGI (DU-145 prostate) [µM] | TGI (HCT-116 colon) [µM] | TGI (HOP-62 NSCLC) [µM] | TGI (HS 578T breast) [µM] | TGI (IGROV1 ovarian) [µM] | TGI (MALME-3M melanoma) [µM] | TGI (NCI-H226 lung) [µM] | TGI (NCI/ADR-RES ovarian) [µM] | TGI (RXF 393 renal) [µM] | TGI (SF-539 CNS) [µM] | TGI (SK-MEL-28 melanoma) [µM] | TGI (SK-MEL-5 melanoma) [µM] | TGI (SNB-19 CNS) [µM] | TGI (UACC-257 melanoma) [µM] | TGI (UACC-62 melanoma) [µM]
N#Cc1c(Nc2ccccc2)[n+]([O-])c2ccc(Cl)cc2[n+]1[O-] | 34 | > 60.8 | 14.9 | > 96.4 | 33.1 | > 69.9 | > 72.8 | 5.96 | 26.9 | > 45.2 | 8.15 | > 100 | 21.4 | > 100 | 4.84 | > 77.4 | > 25.3 | 31.5
CCCCn1c2c(n(CCCC)c1=[Se])-c1c(n(CCCC)c(=[Se])n1CCCC)S[Se][Se]S2 | > 72.6 | > 61.3 | > 92.5 | 63.4 | > 56.2 | 49.1 | 80.5 | 18.5 | 15.4 | 39 | 39.5 | > 71.4 | 42.8 | > 100 | 34.6 | > 65.2 | > 100 | 40.7
COc1ccccc1NC1=NCC(C)S1 (centres undefined) | > 100 | > 100 | > 100 | > 100 | > 100 | > 100 | > 100 | > 100 | > 100 | > 100 | > 100 | > 100 | > 100 | > 100 | > 100 | > 100 | > 100 | > 100
